Results from US12324794B2, “Method to alleviate the symptoms of PMS” (priority 2016, dated 2025).

Assays:
women with PMS / PMDD = assay: Case studies of women with PMS or PMDD symptoms (Examples 2-6); format: in vivo, human
Description: Below are some case studies and a human trial, both of which show significant improvement in symptoms. While acne can be measured by inspection, the other symptoms rely upon the internal feelings of the patient. To measure symptoms that deal with tender breasts, fatigue, difficulty concentrating, diminished impulse control, irritability, anxiety, tension, anger, depression, suicidal thoughts, feeling “out of control”, insomnia, cramping and rapid fluctuations in mood, one skilled in the art must rely on the interpretation of patient. This can be done through an interview with an expert, such as a medical doctor, or through validated survey forms that specifically address these symptoms. Examples of these forms that have been validated by independent clinical trial include: • Buss Perry Aggression Questionnaire (Anger) • Clinical Anger Scale (Anger) • Cohen-Perceived-Stress Scale (Anxiety) • Generalized-Anxiety-Scale (Anxiety) • Generalized Anxiety Disorder 7-item (GAD-7) scale (Anxiety) • Beck's Depression Inventory (Depression) • Center for Epidemiologic Studies Depression Scale (Depression) • Hospital Anxiety and Depression Scale (Anxiety and Depression) • Premenstrual Assessment Form (anger, depression, fatigue and anxiety) • Mood Calendar Tracking (anger, depression, fatigue and anxiety) A person experienced severe anger and depression one day a month, right before their period, every month. […] The cramping was not relieved by Midol or Aspirin. The person was despondent even after their symptoms of PMDD left because of guilt over their behavior during this time period. […] They reported that it was like a 1,000 pound weight being taken off their shoulders. The person in Example 3 continued to take oxaloacetate each month for the next three months and monitored their progress. They took one pill starting about 10 days before their period, and continued taking 1 pill daily until the first sign of PMS, when they increased the dosage to 2 capsules per day until the 2nd day of their period. […] They reported that “I am no longer a suicidal, psychotic crazy person every month. And I know it is the supplements because this will be the 3rd month with no PMDD and that is NOT a coincidence.” A person presented with severe PMDD ever since they were […]. They are now 26. Typically, the patient had to take-off from work 3 days out of each month, and self-seclude, because they could not be with people. […] The improvements with anhydrous enol-oxaloacetate have continued for over 2 years with this patient. A person presented with severe anxiety attacks and fatigue during the week before menstruation.

[1] = Stability / decarboxylation; format: physicochemical
Description: The enol and keto form of oxaloacetic acid are tautomers, and in water form a chemical equilibrium. […] The keto-oxaloacetate decarboxylates quickly to pyruvate. As the keto-oxaloacetate form disappears due to decarboxylation, the enol and hydrated form convert to keto-oxaloacetate, and then also decarboxylate into carbon dioxide and pyruvate, until all the oxaloacetate is consumed. Note that neither of the byproducts of oxaloacetate decarboxylation, carbon dioxide and pyruvate, are effective in treating the symptoms of PMS and PMDD. If there are divalent cations in the fluid, which is very common, the decarboxylation of oxaloacetic acid can happen within a day. […] (See Cash, U.S. Pat. No. 9,050,306). […] Water catalyzes the equilibrium reaction between enol- and keto oxaloacetic acid. Note that only the keto form of oxaloacetic acid decarboxylates into pyruvate and carbon dioxide spontaneously, not the enol-form. There is an energy gap between the enol and keto form which is bridged when the compounds are exposed to water, however, this same energy gap prevents the conversion of the enol to keto form when the product is kept dry. Once there is a conversion to the keto form, decarboxylation can spontaneously occur at temperatures above the freezing point of water. […] Drying effectiveness can be increased by increasing the drying time, drying under vacuum, by using anhydrous washes of isopropyl alcohol or ethyl alcohol to absorb the remaining water (and then evaporating the alcohol), or by performing multiple washes with hexane or non-water soluble solvent to physically remove the water, typically after an alcohol wash. The non-water soluble solvent would then be evaporated off. […] Hexane is a residual solvent in many commercial food preparations including decaffeinated coffee, and is not toxic in small quantities. Alternatively, the final wash can be performed with liquefied propane, liquefied butane, ethyl acetate, ethane, carbon dioxide, or nitrous oxide to reduce the water content.

[2] = in vivo
Description: The dose ratio between toxic and therapeutic effects is the therapeutic index and it can be expressed as the ratio LD50/ED50.

women with PMS [3] = assay: Single-blinded, placebo controlled cross-over trial for PMS emotional symptoms (Example 8); format: in vivo, human; design: concentration or dose not given beside the values; conditions: placebo first, oxaloacetate second, 19 women
Description: The clinical trial of Example 7 was repeated with 19 women, except that the trial was single blinded. The placebo was sent to all women first, and the oxaloacetate active second. […] This should not have come as a complete surprise to us, as oxaloacetate exerts a beneficial effect on gene expression (movement towards the calorie restriction metabolic state) that can have positive effects for several weeks after discontinuation of the product. To better measure the oxaloacetate effect, therefore, oxaloacetate was given second in this trial. P values were calculated using a student's T test, using a two-tailed distribution with paring of the data to the individual.

women with PMS [4] = assay: Suicidal Ideation item of Beck's Depression Inventory, Clinical Trials 1 and 2 compiled (Example 9); format: in vivo, human; conditions: 31 women with baseline score above 0, both trials compiled
Description: In the clinical trials within Examples 7 and 8, the Beck's Depression Inventory was used. One portion of the Beck's Depression Inventory specifically deals with “Suicidal Ideation” (thoughts about committing suicide). The survey scores the relative severity of suicidal ideation via numerical scoring as follows: • Score Value • 0 I don't have any thoughts of killing myself. • 1 I have thoughts of killing myself, but I would not carry them out. • 2 I would like to kill myself. • 3 I would kill myself if I had the chance. The results of Clinical Trial 1 and 2 were compiled to examine the Suicidal Ideation of the women who participated in this clinical trial. Out of the 45 women in both trials, 31 women experienced a score above 0 in the baseline survey. No women in the completed study who scored 0 in the baseline study increased their suicidal ideation score. In order to examine suicidal ideation statistically, women with a 0 score on their baseline survey were removed from the analysis. P values were calculated using a student's T test, using a two-tailed distribution with paring of the data to the individual.

women with PMS [5] = assay: Randomized, double-blinded, placebo controlled cross-over trial for PMS emotional symptoms (Example 7); format: in vivo, human; conditions: 200 mg oxaloacetate per day, approx. 28 days, 26 women
Description: A randomized, double blinded placebo-controlled crossover trial was conducted using 200 mg oxaloacetate per day as the active ingredient, and rice flour as the placebo ingredient. An Institutional Review Board (IRB) has approved the clinical plan, and patients have signed the human consent forms. Patients were located from across the United States. Consent forms and survey questionnaires were filled out on-line. The patients and the lead investigator were unaware of which product, Active or Placebo, the patients were receiving. Inclusion Criteria for the trial: • Able to give informed consent and follow instructions per the protocol • Female with history of mood swings, anxiety or depressed mood associated with PMS • Ages 21 to 50 at the start of the study • Not pregnant Exclusion Criteria for the trial: • A formal diagnosis of Major Depression • Previously taken Oxaloacetate as a supplement • Participation in other drug studies or use of other investigational products within 30 days prior to baseline • If unwilling to discontinue use of other nutritional supplements taken for the purpose of PMS modulation during the study • Any unstable or clinically significant condition that would impair the subject's ability to comply with study follow up. • […] of Premenstrual Dysphoric Disorder (PMDD) (a severe form of PMS). After signing the human consent forms, the patient took four different surveys to assess their current emotional state during PMS. • The Beck Depression Inventory modified to examine the week prior to the person's period (21 questions) • The Cohen Perceived Stress form, modified to examine the week prior to the person's period (10 questions). • The Generalized Anxiety Disorder 7-Item Scale modified to examine the week prior to the person's period (7 questions). • The Buss Perry Aggression questionnaire modified to examine the week prior to the person's period (29 questions). The time to fill out the composite 4-survey questionnaire is less than 30 minutes. The questionnaires are filled out on-line and made available to investigator team. […] After a “baseline” 4-survey questionnaire was completed by the women, they would be randomly sent either the Active oxaloacetate compound (200 mg oxaloacetate) or the Placebo (200 mg rice flour). The women would take a daily dose of the compound received, starting with their menstrual period, and continuing daily until the following menstrual period. At that following menstrual period, the women would again complete the 4-survey questionnaire. […] This is a “cross-over” type design. The women take the new product staring on a menstrual period, and continue taking it daily until a following menstrual period. The then again complete the 4-survey questionnaire. In this trial, each woman completed a baseline survey, and a survey after approximately 28 days for oxaloacetate, and a survey after approximately 28 days for rice flour. 26 women completed the study. Half of the women took oxaloacetate first, and the other half took a placebo first. […] P values were calculated using a student's T test, using a two-tailed distribution with paring of the data to the individual.

[6] = Forms of oxaloacetic acid in water; format: physicochemical; conditions: pH 6.9
Description: In some embodiments, the present invention provides methods for treating symptoms of PMS and methods for treating symptoms of PMS and PMDD comprising administration of compositions comprising oxaloacetate. Oxaloacetic acid, when dissolved in water, ionizes to oxaloacetate. The oxaloacetate can be in three forms depending on the pH of the solution. At low pH (<1.5) and low temperature (<4° C.) oxaloacetate hydrates. […] Outside of water solutions, the solid form of oxaloacetic acid is primarily in the enol form. All forms of oxaloacetic acid and the ion oxaloacetate are absorbed by the body. The hydrated form is mostly converted once it enters the higher pH of the body outside of the intestinal tract to the keto and enol form. […] Enol-oxaloacetate is converted to keto-oxaloacetate with the enzyme enol-keto tautomerase, a ubiquitous enzyme throughout the human body. The enol and keto form of oxaloacetic acid are tautomers, and in water form a chemical equilibrium. […] The keto-oxaloacetate decarboxylates quickly to pyruvate. As the keto-oxaloacetate form disappears due to decarboxylation, the enol and hydrated form convert to keto-oxaloacetate, and then also decarboxylate into carbon dioxide and pyruvate, until all the oxaloacetate is consumed. Note that neither of the byproducts of oxaloacetate decarboxylation, carbon dioxide and pyruvate, are effective in treating the symptoms of PMS and PMDD. If there are divalent cations in the fluid, which is very common, the decarboxylation of oxaloacetic acid can happen within a day.

## O=C(O)CC(=O)C(=O)O [anhydrous enol-oxaloacetate, anhydrous enol-oxaloacetic acid]
Women with PMS / PMDD; person, two 100 mg lozenges under the tongue (Example 6)
  fatigue during the week before menstruation: greatly reduced
Women with PMS / PMDD; person, two 100 mg lozenges under the tongue for 5 minutes (Example 6)
  time until panic attack subsided: less than 5 minutes
Women with PMS / PMDD; person, two capsules of 100 mg on that day (Example 2)
  severe premenstrual anger and depression: reduced in intensity to the point where they could manage the symptoms easily
[1]; room temperature, kept dry
  stability at room temperature: exceeding one year

## CC(=O)Oc1ccccc1C(=O)O [Aspirin, reference compound]
Women with PMS / PMDD; person with PMDD, history (Example 3)
  relief of extreme cramping (pain level 10): not relieved

## O=C(O)CC(=O)C(=O)O [Oxaloacetate]
[2]
  LD50: above 5 g/kg of body weight
Women with PMS [3]
  Beck's Depression Inventory, reduction from Placebo: 37.12%
  Beck's Depression Inventory, reduction from baseline: 54.42%
  Buss-Perry Aggression Scale, reduction from Placebo: 14.06%
  Buss-Perry Aggression Scale, reduction from baseline: 17.81%
  Cohen Perceived Stress, reduction from Placebo: 24.40%
  Cohen Perceived Stress, reduction from baseline: 36.67%
  Generalized Anxiety Disorder, reduction from Placebo: 38.02%
  Generalized Anxiety Disorder, reduction from baseline: 54.23%
Women with PMS [4]
  Suicidal Ideation, reduction from Baseline: 47.90%
Women with PMS [5]
  Beck's Depression Inventory, reduction from Placebo: 25.57%
  Beck's Depression Inventory, reduction from baseline: 50.88%
  Buss-Perry Aggression Scale, reduction from Placebo: 9.22%
  Buss-Perry Aggression Scale, reduction from baseline: 15.10%
  Cohen Perceived Stress, reduction from Placebo: 16.51%
  Cohen Perceived Stress, reduction from baseline: 34.35%
  Generalized Anxiety Disorder, reduction from Placebo: 28.08%
  Generalized Anxiety Disorder, reduction from baseline: 49.73%

## O=C(O)CC(=O)C(=O)O [oxaloacetic acid]
[1]; divalent cations in the fluid
  time to decarboxylation in fluid: within a day
[1]; very low pH, temperatures not exceeding 8° C.
  stability of the hydrated form: less than one week
[6]
  share in the enol form: 11%
  share in the hydrated form: 5%
  share in the keto form: 84%
